Key:
Test in all cases: KINOMEscan competition binding
Conditions in all cases: compound 0.1 µM
[1] = molecular target: STK17A (human) (UniProt Q9UEE5)
[2] = molecular target: ERBB3 (human) (UniProt P21860)
[3] = molecular target: PHKG2 (human) (UniProt P15735)
[4] = molecular target: PIM1 (human) (UniProt P11309)
[5] = molecular target: CRK2 (P.falciparum) (UniProt P61075)
[6] = tested on: FLT3 (human), P36888 [N841I]
[7] = molecular target: PLK1 (human) (UniProt P53350)
[8] = molecular target: STK38L (human) (UniProt Q9Y2H1)
[9] = molecular target: FGFR1 (human) (UniProt P11362)
[10] = molecular target: SGK2 (human) (UniProt Q9HBY8)
[11] = molecular target: DYRK1A (human) (UniProt Q13627)
[12] = molecular target: MAPK12 (human) (UniProt P53778)
[13] = molecular target: PIK3C2G (human) (UniProt O75747)
[14] = molecular target: LATS1 (human) (UniProt O95835)
[15] = molecular target: PLK4 (human) (UniProt O00444)
[16] = molecular target: MST1R (human) (UniProt Q04912)
[17] = tested on: MET (human), P08581 [Y1235D]
[18] = tested on: PIK3CA (human), P42336 [E542K]
[19] = tested on: ABL1 (human), P00519 [H396P]
[20] = molecular target: CAMKK1 (human) (UniProt Q8N5S9)
[21] = molecular target: RAF1 (human) (UniProt P04049)
[22] = tested on: RET (human), P07949 [V804L]
[23] = molecular target: CLK2 (human) (UniProt P49760)
[24] = molecular target: LIMK2 (human) (UniProt P53671)
[25] = molecular target: SBK1 (human) (UniProt Q52WX2)
[26] = molecular target: MAP3K2 (human) (UniProt Q9Y2U5)
[27] = molecular target: EIF2AK2 (human) (UniProt P19525)
[28] = molecular target: AURKB (human) (UniProt Q96GD4)
[29] = molecular target: WNK3 (human) (UniProt Q9BYP7)
[30] = molecular target: IRAK4 (human) (UniProt Q9NWZ3)
[31] = molecular target: PKMYT1 (human) (UniProt Q99640)
[32] = molecular target: TYK2 JH2 pseudokinase (human) (UniProt P29597)
[33] = molecular target: ERBB4 (human) (UniProt Q15303)
[34] = molecular target: AURKA (human) (UniProt O14965)

Chain of PLK4 (human) (O00444 whole entry, looked up): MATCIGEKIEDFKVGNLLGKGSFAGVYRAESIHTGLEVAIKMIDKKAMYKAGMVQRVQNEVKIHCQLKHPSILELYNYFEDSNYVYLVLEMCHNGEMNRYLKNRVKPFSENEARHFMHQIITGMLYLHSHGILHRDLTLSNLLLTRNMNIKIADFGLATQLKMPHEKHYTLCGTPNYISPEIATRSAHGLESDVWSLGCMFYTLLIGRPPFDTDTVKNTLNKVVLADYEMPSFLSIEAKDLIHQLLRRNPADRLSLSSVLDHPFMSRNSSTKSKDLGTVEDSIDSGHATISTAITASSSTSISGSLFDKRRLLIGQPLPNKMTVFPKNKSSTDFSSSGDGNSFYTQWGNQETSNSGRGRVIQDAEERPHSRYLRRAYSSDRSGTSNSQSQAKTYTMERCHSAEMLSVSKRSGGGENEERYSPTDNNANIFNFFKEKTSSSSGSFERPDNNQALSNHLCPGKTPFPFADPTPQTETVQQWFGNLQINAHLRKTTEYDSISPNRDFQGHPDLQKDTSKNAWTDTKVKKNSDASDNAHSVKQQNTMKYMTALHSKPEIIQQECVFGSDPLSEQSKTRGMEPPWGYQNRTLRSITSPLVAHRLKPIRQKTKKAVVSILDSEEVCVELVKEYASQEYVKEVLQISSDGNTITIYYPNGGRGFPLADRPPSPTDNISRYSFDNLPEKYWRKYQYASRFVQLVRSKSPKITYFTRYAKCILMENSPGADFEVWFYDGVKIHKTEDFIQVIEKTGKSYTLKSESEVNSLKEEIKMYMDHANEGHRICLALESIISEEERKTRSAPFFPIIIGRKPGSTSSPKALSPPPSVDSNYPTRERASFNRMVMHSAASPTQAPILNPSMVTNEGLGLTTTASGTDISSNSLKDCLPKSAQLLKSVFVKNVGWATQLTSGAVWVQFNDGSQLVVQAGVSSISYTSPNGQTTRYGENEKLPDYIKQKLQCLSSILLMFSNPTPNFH
Chain of SGK2 (human) (Q9HBY8 whole entry, looked up): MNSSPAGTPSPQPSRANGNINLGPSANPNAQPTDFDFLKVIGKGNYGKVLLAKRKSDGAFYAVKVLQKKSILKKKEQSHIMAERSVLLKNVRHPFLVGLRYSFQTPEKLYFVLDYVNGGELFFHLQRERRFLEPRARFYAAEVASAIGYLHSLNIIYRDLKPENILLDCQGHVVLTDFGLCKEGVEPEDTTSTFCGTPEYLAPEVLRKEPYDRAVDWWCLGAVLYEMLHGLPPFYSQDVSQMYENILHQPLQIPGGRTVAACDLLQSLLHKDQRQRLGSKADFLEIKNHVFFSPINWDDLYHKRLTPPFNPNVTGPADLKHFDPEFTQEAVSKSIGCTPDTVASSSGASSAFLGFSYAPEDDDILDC
Chain of IRAK4 (human) (Q9NWZ3 whole entry, looked up): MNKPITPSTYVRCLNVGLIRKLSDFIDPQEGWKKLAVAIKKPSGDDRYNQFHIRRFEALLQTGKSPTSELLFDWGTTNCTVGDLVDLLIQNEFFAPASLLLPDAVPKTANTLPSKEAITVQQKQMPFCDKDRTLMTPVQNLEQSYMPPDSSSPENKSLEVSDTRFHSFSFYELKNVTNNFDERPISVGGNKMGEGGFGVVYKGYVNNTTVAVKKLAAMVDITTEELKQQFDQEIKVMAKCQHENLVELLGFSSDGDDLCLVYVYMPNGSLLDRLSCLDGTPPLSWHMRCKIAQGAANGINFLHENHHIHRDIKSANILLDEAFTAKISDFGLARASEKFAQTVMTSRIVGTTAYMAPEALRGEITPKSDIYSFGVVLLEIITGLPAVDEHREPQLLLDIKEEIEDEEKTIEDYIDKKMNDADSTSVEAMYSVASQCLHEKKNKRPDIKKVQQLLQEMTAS
Chain of WNK3 (human) (Q9BYP7 whole entry, looked up): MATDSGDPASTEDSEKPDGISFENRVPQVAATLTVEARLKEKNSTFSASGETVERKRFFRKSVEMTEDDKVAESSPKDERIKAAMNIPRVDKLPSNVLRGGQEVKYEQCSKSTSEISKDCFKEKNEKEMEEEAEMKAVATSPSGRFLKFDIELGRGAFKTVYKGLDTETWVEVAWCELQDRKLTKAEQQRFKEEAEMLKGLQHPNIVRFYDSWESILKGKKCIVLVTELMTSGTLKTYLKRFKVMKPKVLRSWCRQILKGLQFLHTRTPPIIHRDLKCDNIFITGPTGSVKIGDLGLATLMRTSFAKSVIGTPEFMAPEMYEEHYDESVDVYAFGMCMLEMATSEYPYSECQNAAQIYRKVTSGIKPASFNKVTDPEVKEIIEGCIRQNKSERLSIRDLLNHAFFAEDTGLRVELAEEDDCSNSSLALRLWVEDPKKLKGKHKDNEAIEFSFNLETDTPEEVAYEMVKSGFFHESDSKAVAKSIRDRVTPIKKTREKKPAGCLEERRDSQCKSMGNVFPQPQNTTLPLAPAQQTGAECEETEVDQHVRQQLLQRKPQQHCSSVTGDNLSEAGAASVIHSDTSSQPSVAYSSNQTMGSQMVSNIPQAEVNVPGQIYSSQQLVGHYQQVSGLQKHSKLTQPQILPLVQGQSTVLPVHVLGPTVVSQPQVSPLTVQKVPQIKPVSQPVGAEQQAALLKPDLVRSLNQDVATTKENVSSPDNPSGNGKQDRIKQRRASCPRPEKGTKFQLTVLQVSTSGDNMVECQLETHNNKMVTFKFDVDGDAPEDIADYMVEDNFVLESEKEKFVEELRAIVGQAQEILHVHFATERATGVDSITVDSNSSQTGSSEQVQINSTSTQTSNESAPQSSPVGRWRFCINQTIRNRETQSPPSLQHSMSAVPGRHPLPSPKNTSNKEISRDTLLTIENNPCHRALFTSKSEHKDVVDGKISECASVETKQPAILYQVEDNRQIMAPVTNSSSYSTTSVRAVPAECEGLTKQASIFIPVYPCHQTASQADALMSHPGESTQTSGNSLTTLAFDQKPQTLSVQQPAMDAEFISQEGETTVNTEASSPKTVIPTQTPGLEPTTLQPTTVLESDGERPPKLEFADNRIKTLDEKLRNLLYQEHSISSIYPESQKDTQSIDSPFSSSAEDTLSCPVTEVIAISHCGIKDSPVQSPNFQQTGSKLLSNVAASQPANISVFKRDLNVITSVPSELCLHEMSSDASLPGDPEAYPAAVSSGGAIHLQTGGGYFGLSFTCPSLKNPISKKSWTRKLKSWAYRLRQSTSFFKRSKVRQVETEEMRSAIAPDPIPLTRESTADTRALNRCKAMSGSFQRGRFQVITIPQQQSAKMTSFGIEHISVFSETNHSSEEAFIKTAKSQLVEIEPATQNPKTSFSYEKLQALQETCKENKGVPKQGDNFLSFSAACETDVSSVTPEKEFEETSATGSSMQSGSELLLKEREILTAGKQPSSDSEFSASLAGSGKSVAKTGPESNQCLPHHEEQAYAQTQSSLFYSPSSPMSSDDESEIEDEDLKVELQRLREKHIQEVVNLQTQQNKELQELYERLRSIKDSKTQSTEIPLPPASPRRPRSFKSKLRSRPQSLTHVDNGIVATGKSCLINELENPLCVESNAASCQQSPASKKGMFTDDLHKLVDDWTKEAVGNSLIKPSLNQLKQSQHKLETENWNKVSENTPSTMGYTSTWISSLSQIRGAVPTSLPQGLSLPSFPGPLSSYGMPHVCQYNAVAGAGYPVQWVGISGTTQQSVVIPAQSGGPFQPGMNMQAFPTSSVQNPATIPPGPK
Chain of TYK2 JH2 pseudokinase (human) (P29597 whole entry, looked up): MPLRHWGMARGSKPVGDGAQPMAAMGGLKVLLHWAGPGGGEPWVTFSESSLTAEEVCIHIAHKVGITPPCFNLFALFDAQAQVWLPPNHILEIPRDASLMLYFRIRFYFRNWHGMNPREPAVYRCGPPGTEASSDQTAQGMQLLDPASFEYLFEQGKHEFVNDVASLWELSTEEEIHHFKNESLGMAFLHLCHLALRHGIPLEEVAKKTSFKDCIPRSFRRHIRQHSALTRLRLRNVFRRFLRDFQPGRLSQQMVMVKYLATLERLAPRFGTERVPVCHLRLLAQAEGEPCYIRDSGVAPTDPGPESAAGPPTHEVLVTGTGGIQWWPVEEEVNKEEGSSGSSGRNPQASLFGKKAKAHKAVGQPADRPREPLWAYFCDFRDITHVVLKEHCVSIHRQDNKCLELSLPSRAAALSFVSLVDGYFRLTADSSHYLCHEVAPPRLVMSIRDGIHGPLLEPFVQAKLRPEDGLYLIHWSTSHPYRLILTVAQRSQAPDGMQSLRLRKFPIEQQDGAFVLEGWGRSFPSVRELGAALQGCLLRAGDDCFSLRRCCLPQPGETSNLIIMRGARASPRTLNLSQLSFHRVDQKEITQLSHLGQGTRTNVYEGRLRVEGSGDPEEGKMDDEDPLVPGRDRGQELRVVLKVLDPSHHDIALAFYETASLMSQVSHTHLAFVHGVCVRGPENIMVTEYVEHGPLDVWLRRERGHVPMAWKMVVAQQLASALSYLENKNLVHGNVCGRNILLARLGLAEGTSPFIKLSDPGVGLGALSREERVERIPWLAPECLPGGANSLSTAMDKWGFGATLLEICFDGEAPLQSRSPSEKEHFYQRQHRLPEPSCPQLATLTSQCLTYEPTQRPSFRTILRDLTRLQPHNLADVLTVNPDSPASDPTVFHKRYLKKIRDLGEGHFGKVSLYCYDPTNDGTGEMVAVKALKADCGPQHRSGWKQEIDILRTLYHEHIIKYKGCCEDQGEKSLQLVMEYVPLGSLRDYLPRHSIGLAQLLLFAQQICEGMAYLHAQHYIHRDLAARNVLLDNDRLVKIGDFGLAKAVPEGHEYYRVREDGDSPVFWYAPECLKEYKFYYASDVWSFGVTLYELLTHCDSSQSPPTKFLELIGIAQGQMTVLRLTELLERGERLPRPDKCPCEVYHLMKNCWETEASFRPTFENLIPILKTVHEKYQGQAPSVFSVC
Chain of PIM1 (human) (P11309 whole entry, looked up): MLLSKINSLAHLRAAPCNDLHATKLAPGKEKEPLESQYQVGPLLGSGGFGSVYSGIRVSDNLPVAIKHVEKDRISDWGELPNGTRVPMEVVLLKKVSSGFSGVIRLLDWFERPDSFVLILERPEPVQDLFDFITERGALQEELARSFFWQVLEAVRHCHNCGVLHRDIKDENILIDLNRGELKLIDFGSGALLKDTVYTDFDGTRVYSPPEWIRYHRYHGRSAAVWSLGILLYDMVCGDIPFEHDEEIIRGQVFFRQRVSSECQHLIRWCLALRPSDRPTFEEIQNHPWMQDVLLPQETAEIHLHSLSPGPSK

In the case of `CCc1ccc(C(=O)Nc2cc(CN3CCN(C)CC3)cc(C(F)(F)F)c2)cc1C#Cc1cnc2ccnn2c1`, the kinase still bound, per cent of control [1] was 100%, the kinase still bound, per cent of control [2] was 86% and the kinase still bound, per cent of control [3] was 66%. For the same compound, the kinase still bound, per cent of control [4] was 80%, the kinase still bound, per cent of control [5] was 100% and the kinase still bound, per cent of control [6] was 100%. For the same compound, the kinase still bound, per cent of control [7] was 80%, the kinase still bound, per cent of control [8] was 100% and the kinase still bound, per cent of control [9] was 84%. For the same compound, the kinase still bound, per cent of control [10] was 94%, the kinase still bound, per cent of control [11] was 100% and the kinase still bound, per cent of control [12] was 72%. The kinase still bound, per cent of control [13] was 100%, the kinase still bound, per cent of control [14] was 100% and the kinase still bound, per cent of control [15] was 100%. The kinase still bound, per cent of control [16] was 66%, the kinase still bound, per cent of control [17] was 55% and the kinase still bound, per cent of control [18] was 100%. The kinase still bound, per cent of control [19] was 100%, the kinase still bound, per cent of control [20] was 69% and the kinase still bound, per cent of control [21] was 57%. For the same compound, the kinase still bound, per cent of control [22] was 86%, the kinase still bound, per cent of control [23] was 85% and the kinase still bound, per cent of control [24] was 100%. It also gave a kinase still bound, per cent of control [25] of 73%, a kinase still bound, per cent of control [26] of 100% and a kinase still bound, per cent of control [27] of 83%. It also gave a kinase still bound, per cent of control [28] of 100%, a kinase still bound, per cent of control [29] of 100% and a kinase still bound, per cent of control [30] of 100%. The kinase still bound, per cent of control [31] was 100%, the kinase still bound, per cent of control [32] was 100% and the kinase still bound, per cent of control [33] was 100%. It also gave a kinase still bound, per cent of control [34] of 100%.

Reference: the kinase profiling compilation of Christmann-Franck et al. (2016)
